The source of these data is publication PMC6017200, “Inhibition of Cytochrome P450 Activities by Extracts of Hyptis verticillata Jacq.: Assessment for Potential HERB-Drug Interactions” (Molecules : A Journal of Synthetic Chemistry and Natural …, 2018).

Details of data set [1]: method as in PMID 24413832. The following applies: aerial dried samples in ethanol; cited from earlier work.
The target in a further data set is T1, human CYP1A2 (Homo sapiens, UniProt P05177).
T1 sequence (P05177 1-516): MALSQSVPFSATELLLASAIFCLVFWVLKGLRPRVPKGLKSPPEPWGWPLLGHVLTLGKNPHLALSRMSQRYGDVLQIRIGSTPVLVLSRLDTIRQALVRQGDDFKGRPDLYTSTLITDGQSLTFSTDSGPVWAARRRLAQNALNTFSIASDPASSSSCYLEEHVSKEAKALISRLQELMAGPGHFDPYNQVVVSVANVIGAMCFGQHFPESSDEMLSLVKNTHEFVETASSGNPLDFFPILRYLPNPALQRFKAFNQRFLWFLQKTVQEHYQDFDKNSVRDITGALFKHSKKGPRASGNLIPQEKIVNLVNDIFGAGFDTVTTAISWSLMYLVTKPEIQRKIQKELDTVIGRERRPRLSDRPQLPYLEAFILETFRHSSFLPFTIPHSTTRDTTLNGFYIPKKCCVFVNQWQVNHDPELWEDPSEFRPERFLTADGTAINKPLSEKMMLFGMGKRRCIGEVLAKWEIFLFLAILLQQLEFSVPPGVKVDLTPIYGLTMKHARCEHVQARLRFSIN
The data set is described as follows: biochemical. As to the method:
Escherichia coli membranes expressing human CYP1A1, CYP1A2, CYP1B1, CYP3A4, and CYP2D6, co-expressed with CYP reductase, were purchased from Cypex Ltd. (Dundee, UK).
The following methodology was developed by Crespi et al. and adapted by Shields et al. and Murray et al. to screen natural products for cytochrome P450 inhibition potential with a particular emphasis on the P450 enzymes, CYPs 1A1, 1A2, 1B1, 3A4 and 2D6. Plant extracts and various phytochemicals were evaluated for their ability to inhibit the catalytic activity of human cytochrome P450 enzymes by means of high throughput fluorometric inhibition assays conducted in 96 well microtitre plates as described by Crespi et al., BD Gentest and Murray et al..
7-Ethoxy-3-cyanocoumarin (CEC) was used as a substrate for detecting the activities of CYPs 1A1, and 1A2, 7-ethoxyresorufin (ERes) for CYP1B1, 7-benzyloxy-4-trifluoromethylcoumarin (BFC) for CYP3A4, and 3-[2-(N,N-diethyl-N-methylammonium)-ethyl]-7-methoxy-4-methylcoumarin (AMMC) for CYP2D6. The reactions were monitored fluorometrically at 37 °C, using an Eclipse Fluorescence Spectrophotometer (Varian Cary, Palo Alto, CA, USA).
The data listed represent average values from a minimum of two experiments run in triplicate: % Enzyme activity = [Min + (Max − Min)/(1+10^((LogIC50^− x) × p))] where Min and Max are the minimal and maximal observed effects, respectively; x is the concentration of test agent; EC50 is the concentration yielding half-maximal response (i.e., IC50); and p is the slope parameter.

A further data set has as its system CYP2D6. The following applies: read-out: IC50 Value, reported CYP2D6 inhibition, cited from earlier work.
In another data set the test system is CYP1A2. The following applies: human liver microsomes, read-out: IC50 Value, reported CYP1A2 inhibition, cited from earlier work.
The next data set deals with CYP2C8/C9/C19. The following applies: human liver microsomes; read-out: IC50 Value, reported CYP2C8/C9/C19 inhibition; cited from earlier work. (In general: Microsomes from liver hold many membrane-bound enzymes, among them those of drug oxidation.)
The subject of a further data set is CYP3A4. The following applies: cited from earlier work; for IC50: read-out: IC50 Value, reported CYP3A4 inhibition.
Data set [2] in a line: DPPH radical scavenging antioxidant assay. The following applies: 0.097 to 50 µg/mL in methanol, thirty-minute incubation, 517 nm. The procedure: The 1,1-diphenyl-2-picrylhydrazyl (DPPH) assay was used to measure the antioxidant capacity of four different extracts of the aerial parts of H. verticillata (Figure 2). The reduction of DPPH to hydrazine produces a colour change from purple to yellow, which is measured spectrophotometrically and compared with the known antioxidant, ascorbic acid, as described in the Materials and Methods section.
Figure 2 (A) DPPH antioxidant assay for H. verticillata extracts. […] Positive control activity was determined in the presence of varying concentrations of known antioxidant, ascorbic acid, ranging from 0.097 to 50 µg/mL. Data are expressed as Mean Percentage Antioxidant Activity (% Inhibition of DPPH) for duplicate assays for at least two independent experiments. (B) Summary of results. […]
The DPPH radical scavenging capacity of extracts of H. verticillata were evaluated by the method described by Williams et al.. The electron-donating ability of each extract, at varying concentrations, was measured colourimetrically through the bleaching of purple-coloured MeOH solution of DPPH. […]
Each test extract, as well as the ascorbic acid control, was made up in methanol to a starting concentration of 50 µg/mL and serially diluted in ninety-six well microtitre plates. […] After a thirty-minute incubation period at room temperature, the absorbance was read against a blank, comprising methanol, at 517 nm. […]

For the next data set, the system named is CYP2C9. On the set-up: method as in PMID 21276781. The following applies: read-out: IC50 Value, reported CYP2C9 inhibition; cited from earlier work.
[3] abbreviates: recombinant human CYP1A2, individual phytochemicals.

≈ marks a conversion by molar mass, not a printed value. Entries after “also recorded” stand apart in the source; their conditions may differ. Where two headings read alike, the source gives them in different places.

As to `Cc1c(C)c2c(c(C)c1O)CCC(C)(C(=O)O)O2` (stereo not drawn) [Trolox], in data set [1], the “IC50, DPPH assay” value is given as 1.99 µg/mL (≈ 7.95 µM).
As for `C=C1CCC(C(C)C)C2C=C(C)C(=O)CC12` (stereo not drawn) [Cadina-4,10(15)-dien-3-one], the IC50 on human CYP1A2 (read-out: IC50, CYP1A2 activity, recombinant human CYP1A2, individual phytochemicals) is more than 500 µM.
For the molecule `COc1cc([C@@H]2c3cc4c(cc3[C@H](O)[C@H]3COC(=O)[C@H]23)OCO4)cc(OC)c1OC` [Podophyllotoxin], the “IC50, CYP1A2 activity” value is on record as “No inhibition” at human CYP1A2 (setting [3]) and “no impact; also recorded: no inhibition” on human CYP1A2 (recombinant human CYP1A2, individual phytochemicals, listed as podophyllotoxin).
As to `CC1(C)CC[C@]2(C(=O)O)CC[C@]3(C)C(=CC[C@@H]4[C@@]5(C)CC[C@H](O)C(C)(C)[C@@H]5CC[C@]43C)[C@@H]2C1` [Oleanolic acid], the IC50 on human CYP1A2 is more than 100 µM; in the data set on CYP2D6 (human liver microsomes), more than 500 µM; with CYP1A2 (listed as oleanolic), more than 100 µM; with CYP1A2, 144 µM; in the data set with CYP2C8/C9/C19 it was more than 500 µM; in the data set on CYP3A4 (human liver microsomes) it was […].
Take `O=C1O[C@H]([C@@H](O)CO)C(O)=C1O` [Ascorbic acid]: the “IC50, DPPH antioxidant assay” value in data set [2] turned out to be 1.32 ± 0.0 µg/mL (≈ 7.49 µM); in data set [2] (listed as ascorbic acid) it was 1.3 µg/mL (≈ 7.38 µM).
For `O=C(/C=C/c1ccc(O)c(O)c1)O[C@H](Cc1ccc(O)c(O)c1)C(=O)O` [Rosmarinic acid], the IC50 in the data set with CYP2D6 is more than 500 µM; in the data set on CYP2C9, 319 µM; with CYP3A4, 241 µM. Also, in the data set on CYP3A4, the “IC50 Value, reported CYP3A4 inhibition” value was “No impact”.
With `COc1cc([C@@H]2c3cc4c(cc3[C@H](O)[C@H]3COC(=O)[C@H]23)OCO4)cc(OC)c1O` [4′-Demethylpodophyllotoxin], the “IC50, CYP1A2 activity” value at human CYP1A2 (setting [3]) is recorded as “No inhibition”; at human CYP1A2 (recombinant human CYP1A2, individual phytochemicals, listed as 4-demethylpodophyllotoxin) it was “no inhibition”; at human CYP1A2 (recombinant human CYP1A2, individual phytochemicals, listed as 4′-demethylpodophyllotoxin), “no impact”.
`COc1cc(C[C@H]2C(=O)OC[C@@H]2Cc2ccc3c(c2)OCO3)cc(OC)c1OC` [(-)-Yatein]: the IC50 against human CYP1A2 is 71.9 ± 1.8 µM.
In the case of `C[C@H]1[C@H](C)CC[C@]2(C(=O)O)CC[C@]3(C)C(=CC[C@@H]4[C@@]5(C)CC[C@H](O)C(C)(C)[C@@H]5CC[C@]43C)[C@H]12` [Ursolic acid], at human CYP1A2, the IC50 is more than 100 µM.
